Reference: patent US20030203864A1, “Treatment of cancer” (priority 2002, published 2003)
“Also recorded” adds a separate entry of the source.

Legend:
Assay type in all cases: cell-based, human
[1] = tested on: HMEC-1 cells; test: HMEC-1 proliferation assay (Coulter counter); details: 0.4 μM DNA enzyme
Protocol: HMEC-1 culture and proliferation assay. SV40-transformed HMEC-1 cells were grown in MCDB 131 medium with EGF (10 ng/ml) and hydrocortisone (1 μg/ml) supplements and 10% FBS. […] The cells were quantitated by Coulter counter, 24 h after the addition of serum.

[2] = tested on: HepG2 cells; test: HepG2 cell proliferation (Coulter counter); details: 0.75 μM DNAzyme, 5% FBS, 3 days
Protocol: HepG2 cells were routinely grown in DMEM, pH 7.4, containing 10% fetal calf serum supplemented with antibiotics. The cells were trypsinized, resuspended in growth medium (to 10,000 cells/200 μl) and 200 μl transferred into sterile 96 well titre plates. Two days subsequently, 180 μl of the culture supernatant was removed, the cells were washed with PBS, pH 7.4, and refed with 180 μl of serum free media. After 6 h, the first transfection of DNAzyme (2 μg/200 μl wall, 0.75 μM final) was performed in tubes containing serum free media using FuGENE6 at a ratio of 1:3 (μg:μl). After 15 min incubation at room temperature, 180 μl of the culture supernantant was replaced with 180 μl of the transfection mix, After 24 h, 180 μl of the supernatant was replaced with 180 μl of new transfection mix, but this time in 5% FBS media. After 3 days, the cells were washed in PBS, pH 7.4, and resuspended by trypsinization in 100 μl trypsin-EDTA. The cells were shaken for approximately 5 min to ensure the cells were in suspension. The entire suspension was placed into 10 ml of Isoton II. That all the cells were transferred was ensured by pipetting Isoton II solution from tubes back into wells several times. Using Isoton II only, background cell number was determined. Each sample was counted three times and used to calculate mean counts and standard errors of each mean.

[3] = tested on: EGR-1; test: Western blot of EGR-1 in HepG2 cells
Sequence of EGR-1 (P18146 whole entry): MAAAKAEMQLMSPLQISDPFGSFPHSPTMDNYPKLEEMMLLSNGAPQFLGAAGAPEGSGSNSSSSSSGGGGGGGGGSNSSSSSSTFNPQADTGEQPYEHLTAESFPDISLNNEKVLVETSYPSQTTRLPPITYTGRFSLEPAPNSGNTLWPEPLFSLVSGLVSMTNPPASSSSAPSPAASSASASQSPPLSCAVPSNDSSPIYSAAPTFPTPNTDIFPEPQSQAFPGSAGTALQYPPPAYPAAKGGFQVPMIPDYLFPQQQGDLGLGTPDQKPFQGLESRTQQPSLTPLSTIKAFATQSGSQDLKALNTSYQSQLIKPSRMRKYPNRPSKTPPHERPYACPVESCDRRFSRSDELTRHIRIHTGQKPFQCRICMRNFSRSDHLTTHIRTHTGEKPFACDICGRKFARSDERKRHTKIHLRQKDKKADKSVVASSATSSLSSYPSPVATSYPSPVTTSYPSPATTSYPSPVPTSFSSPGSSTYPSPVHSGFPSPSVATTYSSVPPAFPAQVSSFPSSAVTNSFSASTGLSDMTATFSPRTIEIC

DzA: DNAzyme targeting human EGR-1 mRNA (arms hybridize to nts 189-207), 5′-caggggacaGGCTAGCTACAACGAcgttgcggg (DNA CAGGGGACAGGCTAGCTACAACGACGTTGCGGG; DNA, backbone and methylation of C not given here)
HMEC-1 replication (total cell counts) [1]: inhibited | serum-stimulated HepG2 cell proliferation [2]: almost completely suppressed; also recorded: inhibited | EGR-1 expression in HepG2 cells [3]: strongly inhibited
